Where “and” joins values, the source holds several entries; their conditions need not be identical. Equal values may be shown once.

The record followed here is ChEMBL document CHEMBL4651402, “Screening of ~5500 FDA-approved drugs and clinical candidates for anti-SARS-CoV-2 activity” (2021).

The test system of the first data set is SARS-CoV-2.
Experiment: not given
The note with it: vero c1008.
With `OC(CNCC(O)C1CCc2cc(F)ccc2O1)C1CCc2cc(F)ccc2O1` (configuration not stated) [NEBIVOLOL], the IC50 is above 20 µM and the negative-log IC50 (pIC50) (as a rule, the negative decadic logarithm of the IC50, by convention in mol/L) was below 4.7.
Molecule `CNCC(O)C(O)C(O)C(O)CO.Cc1c(Nc2ncccc2C(=O)O)cccc1C(F)(F)F` came in with a negative logarithm of the IC50 (pIC50) below 4.7.
Molecule `O=[N+]([O-])c1ccc(Cl)c([N+](=O)[O-])c1` [DINITROCHLOROBENZENE] gave an IC50 above 20 µM and a pIC50 below 4.7.
As for `CC(Cc1ccccc1)NCCC(c1ccccc1)c1ccccc1` (configuration not stated) [PRENYLAMINE], the IC50 was 8.51 µM and > 20 µM; the pIC50 is 5.07 and < 4.7.
As for `O=C(O)c1cc(=O)c2c(OCC(O)COc3cccc4oc(C(=O)O)cc(=O)c34)cccc2o1.[NaH]`, the negative logarithm of the IC50 (pIC50) was below 4.7.
The molecule `O=C(O)Cc1cn(-c2ccccc2)nc1-c1ccc(Cl)cc1.O=C(O)Cc1cn(-c2ccccc2)nc1-c1ccc(Cl)cc1.[Ca+2]` yielded a pIC50 below 4.7.
Turning to RAUWOLFIA SERPENTINA, the IC50 is above 20 µM and the negative logarithm of the IC50 (pIC50) is below 4.7.
`COC(=O)C1=C(C)NC(C)=C(C(=O)OC2CCCN(Cc3ccccc3)C2)C1c1cccc([N+](=O)[O-])c1` (configuration not stated) [BENIDIPINE] displayed an IC50 above 100 µM.
On to `CC1(C)[C@H](C(=O)[O-])N2C(=O)C[C@H]2S1(=O)=O.[Na+]` [SULBACTAM SODIUM], for which the negative logarithm of the IC50 (pIC50) is below 4.7.
With `CN(C)c1ccc(O)c2c1C[C@H]1C[C@H]3[C@H](N(C)C)C(O)=C(C(N)=O)C(=O)[C@@]3(O)C(O)=C1C2=O.Cl` [MINOCYCLINE HYDROCHLORIDE], the negative logarithm of the IC50 (pIC50) is given as below 4.7.
In turn, `CCCCCCCCNC(C)C(O)c1ccc(SC(C)C)cc1` (configuration not stated) [SULOCTIDIL] had an IC50 above 100 µM.
Regarding `OCCN1CCN(CC/C=C2/c3ccccc3Sc3ccc(Cl)cc32)CC1` [ZUCLOPENTHIXOL], the IC50 was 7.24 µM and > 20 µM; the pIC50 was 5.14 and < 4.7.
Regarding NYSTATIN, the IC50 was above 20 µM and the pIC50 is recorded as below 4.7.
Regarding FLUPENTIXOL, the IC50 is 8.71 µM and > 20 µM; the pIC50 was 5.06 and < 4.7.
For `COc1cccc([C@@H](C)NCCCc2ccccc2Cl)c1`, the IC50 is above 20 µM and the pIC50 is listed as below 4.7.
With ATSM COPPER (II), the IC50 was above 20 µM and the pIC50 is below 4.7.

For another data set, the system named is Vero C1008.
Experiment: not given
To be noted: chlorocebus sabaeus, vero c1008, 48 h.
Consider FLUPENTIXOL, for which the CC50 worked out at 7.67 µM and the pCC50 (commonly the negative decadic logarithm of the CC50, by convention in mol/L) was determined as 5.12.

The data set is the same for the next values; noted with them: chlorocebus sabaeus, vero c1008, 48 h; 48 h.
Consider `CNC[C@H]1C[C@@H]2c3ccccc3Cc3ccc(F)cc3[C@H]2O1`, for which the CC50 was around 22.4 µM and the pCC50 is ~ 4.65.

A further data set deals with SARS-CoV-2. As to the kind of experiment: microbe, parasite or virus in culture. To be noted: Severe acute respiratory syndrome coronavirus 2, Vero C1008, 48 h.
The molecule `OC(CNCC(O)C1CCc2cc(F)ccc2O1)C1CCc2cc(F)ccc2O1` (configuration not stated) [NEBIVOLOL] had an IC50 above 10 µM.
Consider `CNC[C@H]1C[C@@H]2c3ccccc3Cc3ccc(F)cc3[C@H]2O1`, for which the IC50 is above 100 µM.
In turn, `COc1cccc([C@@H](C)NCCCc2ccccc2Cl)c1` had an IC50 of 16.6 µM.

Still in this data set, the particulars now being: Severe acute respiratory syndrome coronavirus 2, Vero C1008, 48 h, read-out: pIC50 (converted).
As for `OC(CNCC(O)C1CCc2cc(F)ccc2O1)C1CCc2cc(F)ccc2O1` (configuration not stated) [NEBIVOLOL], the IC50 was above 10 µM.
As for `CNC[C@H]1C[C@@H]2c3ccccc3Cc3ccc(F)cc3[C@H]2O1`, the IC50 was above 100 µM.
In the case of `COc1cccc([C@@H](C)NCCCc2ccccc2Cl)c1`, the IC50 was 16.6 µM.

Test system in another data set: not listed separately
Description: in vitro. To be noted: chlorocebus sabaeus, Vero E6 (Vero C1008) cells, CC50.
Take `OC(CNCC(O)C1CCc2cc(F)ccc2O1)C1CCc2cc(F)ccc2O1` (configuration not stated) [NEBIVOLOL]: the CC50 at 48 h was determined as 8.71 µM.
The molecule `CC(Cc1ccccc1)NCCC(c1ccccc1)c1ccccc1` (configuration not stated) [PRENYLAMINE] yielded a CC50 at 48 h of 10.7 µM.
On to `COC(=O)C1=C(C)NC(C)=C(C(=O)OC2CCCN(Cc3ccccc3)C2)C1c1cccc([N+](=O)[O-])c1` (configuration not stated) [BENIDIPINE], for which the CC50 at 48 h stood at 14.8 µM.
Regarding `CCCCCCCCNC(C)C(O)c1ccc(SC(C)C)cc1` (configuration not stated) [SULOCTIDIL], the CC50 at 48 h came to 3.27 µM.
Turning to `OCCN1CCN(CC/C=C2/c3ccccc3Sc3ccc(Cl)cc32)CC1` [ZUCLOPENTHIXOL], the CC50 at 48 h is 6.68 µM.
The same measure, in the same setting: for `CNC[C@H]1C[C@@H]2c3ccccc3Cc3ccc(F)cc3[C@H]2O1` the value was 19.5 µM; for `COc1cccc([C@@H](C)NCCCc2ccccc2Cl)c1`, 28.2 µM.

The same data set, now with this note: chlorocebus sabaeus, Vero E6 (Vero C1008) cells, pCC50.
`OC(CNCC(O)C1CCc2cc(F)ccc2O1)C1CCc2cc(F)ccc2O1` (configuration not stated) [NEBIVOLOL] gave a CC50 at 48 h of 8.71 µM.
With `CC(Cc1ccccc1)NCCC(c1ccccc1)c1ccccc1` (configuration not stated) [PRENYLAMINE], the CC50 at 48 h was 10.7 µM.
Regarding `COC(=O)C1=C(C)NC(C)=C(C(=O)OC2CCCN(Cc3ccccc3)C2)C1c1cccc([N+](=O)[O-])c1` (configuration not stated) [BENIDIPINE], the CC50 at 48 h was 14.8 µM.
Same read-out and setting: for `CCCCCCCCNC(C)C(O)c1ccc(SC(C)C)cc1` (configuration not stated) [SULOCTIDIL] the value was 3.24 µM.
Same read-out and setting: for `OCCN1CCN(CC/C=C2/c3ccccc3Sc3ccc(Cl)cc32)CC1` [ZUCLOPENTHIXOL] the value was 6.61 µM; for `CNC[C@H]1C[C@@H]2c3ccccc3Cc3ccc(F)cc3[C@H]2O1`, 19.5 µM; for `COc1cccc([C@@H](C)NCCCc2ccccc2Cl)c1`, 28.2 µM.

In the next data set the test system is SARS-CoV-2. Description: microbe, parasite or virus in culture. The class given is functional, organism-based, Chlorocebus sabaeus, Vero C1008. To be noted: Severe acute respiratory syndrome coronavirus 2, Vero C1008, 48 h; read-out: IC50.
As for `OC(CNCC(O)C1CCc2cc(F)ccc2O1)C1CCc2cc(F)ccc2O1` (configuration not stated) [NEBIVOLOL], the IC50 is above 100 µM.
In the case of `CC(Cc1ccccc1)NCCC(c1ccccc1)c1ccccc1` (configuration not stated) [PRENYLAMINE], the IC50 was above 100 µM.
As to `COC(=O)C1=C(C)NC(C)=C(C(=O)OC2CCCN(Cc3ccccc3)C2)C1c1cccc([N+](=O)[O-])c1` (configuration not stated) [BENIDIPINE], the IC50 was above 100 µM.
As for `CCCCCCCCNC(C)C(O)c1ccc(SC(C)C)cc1` (configuration not stated) [SULOCTIDIL], the IC50 was above 100 µM.
The same measure, in the same setting: for `OCCN1CCN(CC/C=C2/c3ccccc3Sc3ccc(Cl)cc32)CC1` [ZUCLOPENTHIXOL] the value was above 100 µM; for `CNC[C@H]1C[C@@H]2c3ccccc3Cc3ccc(F)cc3[C@H]2O1`, above 100 µM; for `COc1cccc([C@@H](C)NCCCc2ccccc2Cl)c1`, above 100 µM.

The data set is the same for the next values; noted with them: Severe acute respiratory syndrome coronavirus 2, Vero C1008, 48 h; read-out: pIC50 (converted).
Regarding `OC(CNCC(O)C1CCc2cc(F)ccc2O1)C1CCc2cc(F)ccc2O1` (configuration not stated) [NEBIVOLOL], the IC50 is above 100 µM.
As to `CC(Cc1ccccc1)NCCC(c1ccccc1)c1ccccc1` (configuration not stated) [PRENYLAMINE], the IC50 was above 100 µM.
Still for that read-out and setting: for `COC(=O)C1=C(C)NC(C)=C(C(=O)OC2CCCN(Cc3ccccc3)C2)C1c1cccc([N+](=O)[O-])c1` (configuration not stated) [BENIDIPINE] the value was above 100 µM.
On the same count and under the same terms, for `CCCCCCCCNC(C)C(O)c1ccc(SC(C)C)cc1` (configuration not stated) [SULOCTIDIL] the value was above 100 µM.
On to `OCCN1CCN(CC/C=C2/c3ccccc3Sc3ccc(Cl)cc32)CC1` [ZUCLOPENTHIXOL], for which the IC50 is above 100 µM.
As to `CNC[C@H]1C[C@@H]2c3ccccc3Cc3ccc(F)cc3[C@H]2O1`, the IC50 was above 100 µM.
With `COc1cccc([C@@H](C)NCCCc2ccccc2Cl)c1`, the IC50 is above 100 µM.

The same data set, now with this note: vero c1008.
`CNC[C@H]1C[C@@H]2c3ccccc3Cc3ccc(F)cc3[C@H]2O1` showed a pIC50 below 4.3.
In the case of FLUPENTIXOL, the pIC50 is below 4.

Still in this data set, the particulars now being: vero c1008; read-out: IC50.
On to `CNC[C@H]1C[C@@H]2c3ccccc3Cc3ccc(F)cc3[C@H]2O1`, for which the IC50 was above 50.1 µM.
Turning to FLUPENTIXOL, the IC50 was above 100 µM.
